Measured values: patent publication US20190038689A1, “TOPICAL SKIN COMPOSITIONS FOR TREATING ERYTHEMA OR SKIN INFLAMMATION” (MARY KAY INC., priority 2017, published 2019)

System: Nitric oxide synthases (NOS)
Test: Nitric Oxide Synthase Activity Assay (NO product measured as nitrite, improved Griess method)
Assay type: biochemical
Conditions: for Nitric Oxide Synthase Activity: negative = reduction
Procedure: Nitric Oxide Synthase Activity Assay:
Nitric oxide synthases (NOS) are a family of enzymes catalyzing the production of nitric oxide (NO) from L-arginine. NOS is an important mediator of vasodilation in blood vessels. This bioassay was used to analyze the effect of saccharide isomerate extract, Myrothamnus flabellifolia extract, [6]-paradol, and a combination of algae extract and mugwort (Artemisia vulgaris) extract on the activity of NOS. The bioassay is performed in the presence or absence of the test compound, test extract, or positive control during production of NO by NOS. To measure the activity of NOS, the NO product is allowed to oxidize to nitrite and nitrate and then the nitrate is reduced to nitrite and measured using an improved Griess method. It was shown that saccharide isomerate extract, Myrothamnus flabellifolia extract, [6]-paradol, and a combination of algae extract and mugwort (Artemisia vulgaris) extract reduced the activity of NOS greater than the 1 μM SIN-1 positive control.

SMILES | activity of NOS was reduced by (1 μM positive control) | Nitric Oxide Synthase Activity (1 μM, positive control) [%] | Nitric Oxide Synthase Activity (1% ingredient) [%] | activity of NOS was reduced by (rounded values of Table 2 (1% ingredient)) [%]
[NH-]c1c[n+](N2CCOCC2)no1 [SIN-1] | approximately 29% | −28.7 | – | –
CCCCCCCC(=O)CCc1ccc(O)c(OC)c1 [SYMRELIEF ® S, 1-(4-hydroxy-3-methoxyphenyl)decan-3-one] | – | – | −46.617 | ~47
